Reference: US6902741B1, “Laminates containing an active substance transdermal system” (Jenapharm GmbH & Co. KG, priority 1999, dated 2005)

Assay type: physicochemical
Source text: In this manner, by use of solid polymer inclusions, optimum active substance loadings can be attained in different polymers. The active substance concentrations in the polymer inclusions can be stabilized at a very high level so that only minimum amounts of additional solvent are needed. In cases where the solubility of the drug in the adhesive is the primary factor limiting skin permeation, the method of preparation described under B) must be chosen.
When such solid active substance inclusions are introduced into adhesive matrix solutions in dissolved form, the high solubility of the inclusion polymer in the matrix solvent used, for example ethyl acetate, ethanol etc, is important. Rapid dissolution of the amorphous active substance is attained to a level far above its saturation solubility in the pure solvent. For example, at room temperature ethyl acetate dissolves only about 3 wt. % of a gestagenic steroid. By use of a corresponding solid active substance solution, the solubility of the steroid in the solution of ethyl acetate and nonadhesive polymer was increased to nearly 15 wt. % and kept stable. It should be kept in mind in this respect that, based on the volatile solvent ethyl acetate which is to be driven off from the adhesive matrix that is to be dried, the solubility was increased to more than 30 wt. %. […]

C#C[C@]1(O)C=C[C@H]2[C@@H]3CCC4=CC(=O)CC[C@@H]4[C@H]3CC[C@@]21CC [gestodene]
solubility in ethyl acetate: 3%
